From PMC8156206, “Novel N,N′-Disubstituted Selenoureas as Potential Antioxidant and Cytotoxic Agents” (Antioxidants, 2021)

What was measured:
[1] = ABTS radical scavenging assay; conditions: for ABTS radical scavenging kinetics: 0.03 mg/mL
Description: (§1) From all the methods available for the prediction of the antioxidant properties, DPPH^● and ABTS^●+ assays were chosen according to their simplicity, accessibility, and effectiveness for a fast prediction of radical scavenging activities in vitro. The radical scavenging capacity of the novel selenoureas was determined by DPPH^● and ABTS^●^+ assays. Measurements were recorded on a BioTeck PowerWave XS spectrophotometer (BioTeck Instruments, Winooski (VT), USA) and the data were collected using KCJunior software (BioTeck Instruments, Winooski (VT), USA).
As well as DPPH, ABTS radical scavenging assay is a colorimetric method. ABTS (2,2′-azino-bis(3-ethylbenzothiazoline-6-sulfonic acid) was dissolved in deionized water at 1 mg/mL and oxidized to ABTS^●+ with potassium persulfate (2.45 mM final concentration). This oxidation process is not instantaneous, and the reaction mixture was kept in the dark overnight at room temperature. After ABTS^●+ radical was generated, the ABTS^●+ solution was diluted with 50% ethanol until an absorbance of 0.70 ± 0.02 at 734 nm for measurements was achieved. Stock solution of 1 mg/mL in absolute ethanol was prepared for each selenourea, and different dilutions were prepared to reach the final concentration, when 20 µL of this solution were added to 180 µL of the diluted ABTS^●+. The absorbance at 734 nm was recorded using 50% ethanol as blank. Trolox and Asc were used as positive controls. All determinations were carried out in triplicate. Same time intervals as in the DPPH assay were also measured. The ability to scavenge ABTS^●+ was calculated using the following formula:(2) % ABTS radical scavenging=Acontrol − Asample/Acontrol × 100 where Acontrol refers to the absorbance of the negative control and Asample refers to the absorbance of the tested compounds. The results are expressed as percentage of ABTS radical scavenging ± SD.
In order to confirm the antioxidant activity of the selenoureas, we performed an additional ABTS (2,2′-azino-bis(3-ethylbenzothiazoline-6-sulfonic acid) radical scavenging assay. Following the results obtained in the DPPH assay, this experiment was performed at 0.03 and 0.003 mg/mL. Measurements were recorded after 0′, 6′ and 60′ of incubation with ABTS. For comparison purposes, Trolox and ascorbic acid were used as references. The remarkable results are summarized in Figure 3.

[2] = DPPH radical scavenging assay; conditions: for DPPH radical scavenging kinetics: 0.03 mg/mL, time-point 0 min
Description: as §1
A DPPH assay was performed, as described by Svinyarov. Stock solutions of 1 mg/mL were initially prepared for each selenourea in methanol and this solution was used for the preparation of the different concentrations employed in the assay. Ascorbic acid (Asc) was used as positive control due to the literature reports that this derivative is a potent antioxidant and radical scavenger. A volume of 100 µL from a previously prepared stock solution (preserved in dark and daily prepared) of DPPH (100 µM) in methanol were added to 100 µL of the methanolic selenoureas solutions prepared previously, and the antioxidant activity these compounds was assessed by its ability to decolorize DPPH● radical (purple color in methanol) to DPPHH (colorless). Thus, radical scavenging activity was estimated by the decrease in the absorbance at 517 nm. Determinations were recorded at different time-points. All the measurements were carried out in triplicate. Results are expressed as the percentage of the radicals scavenged, calculated using the following formula:(1) % DPPH radical scavenging=Acontrol − Asample/Acontrol × 100 where Acontrol refers to the absorbance of the negative control and Asample refers to the absorbance of the tested compounds. Results are expressed as percentage of DPPH radical scavenging ± SD.
In order to determine the radical scavenging of these newly synthesized selenourea derivatives, the DPPH assay was firstly employed. Measurements were performed at four different concentrations ranging from 0.0003 to 0.03 mg/mL, and collected at time-points between 0 min and 120 min (Figures S81–S100). Results are presented as the percentage of inhibition for DPPH radical scavenging activity.

[3] = test system: HT-29 cells (colon carcinoma); test: MTT cell viability assay, HT-29; format: cell-based; conditions: Homo sapiens, 48 h, MTT, read-out: cell viability, percentage of live cells; for viability at 10 µM: HT-29, 10 µM; for viability at 50 µM: HT-29, 50 µM
Description: (§2) Cell lines were purchased from the American Type Culture Collection (ATCC). MCF-7, HTB-54, BEAS-2B and 184B5 cell lines were grown in RPMI 1640 medium (Gibco) supplemented with 10% fetal bovine serum (FBS; Gibco), 100 units/mL penicillin, and […] streptomycin (Gibco). HT-29 and HCT-116 cell lines was cultured in McCoy’s 5A (Gibco), 10% FBS, 100 units/mL penicillin, and 100 μg/mL streptomycin. Cells were maintained at 37 °C and 5% CO2. Culture medium was replaced every three days.
(§3) A cell viability assay of each compound was carried out using an MTT assay. Each selenourea was dissolved in dimethyl sulfoxide (DMSO) at a concentration of 0.01 M. Serial dilutions were prepared with non-supplemented culture medium. Cytotoxic activity of each selenourea was determined at two different concentrations (10 and 50 µM) in MCF-7, HTB-54, and HT-29 cells. In addition, selected compounds were tested at seven different concentrations (0.1, 1, 5, 10, 25, 50, 100 µM) on MCF-7, HT-29, HCT-116, HTB-54, 184B5, and BEAS-2B cells. The number of passages before defrosting the cells was 3, and they were kept under culture up to a maximum of 15.
(§4) Briefly, 1 × 10^4 cells/well were grown in 96-well plates for 24 h. Then, these cells were incubated with either DMSO (negative control) at 5 µM or a different concentration of each tested selenourea for 48 h. A volume of 20 µL of MTT was added 150 min before the termination point to measure cellular viability. After this time, culture medium was removed. The resultant formazan crystals were dissolved in 50 µL of DMSO, and absorbance was measured at 570 nm. Results are expressed as IC50, the half maximal inhibitory concentration. This value was calculated using GraphPad Prism 7 software by nonlinear curve fitting. Furthermore, the selectivity index (SI) was calculated as the ratio of the IC50 values determined for the non-malignant and the tumoral cells (IC50 (184B5)/IC50 (MCF-7) or (IC50 (BEAS-2B)/IC50 (HTB-54). Data were obtained from at least three independent experiments performed in triplicates.
(§5) The cytotoxic effects of synthesized compounds were evaluated against three human cancer cell lines: breast adenocarcinoma (MCF-7), lung adenocarcinoma (HTB-54), and colon carcinoma (HT-29), using a 3-[4,5-dimethylthiazol-2-yl]-2,5-diphenyltetrazolium bromide (MTT) assay. Firstly, the compounds were screened at two doses (50 and 10 µM) and after 48 h of treatment. The results are summarized in Figure 4 and are presented as percentages of growth inhibition related to control.

[4] = test system: MCF-7 cells (breast adenocarcinoma); test: MTT cell viability assay, MCF-7; format: cell-based, human; conditions: Homo sapiens, MCF7, 48 h, MTT, read-out: cell viability, percentage of live cells; for viability at 10 µM: MCF-7, 10 µM; for viability at 50 µM: MCF-7, 50 µM
Description: as §2, §3, §4, §5

[5] = test system: HTB-54 cells (lung adenocarcinoma); test: MTT cell viability assay, HTB-54; format: cell-based, human; conditions: Homo sapiens, 48 h, MTT, read-out: cell viability, percentage of live cells; for viability at 10 µM: HTB-54, 10 µM; for viability at 50 µM: HTB-54, 50 µM
Description: as §2, §3, §4, §5

Compound | ABTS radical scavenging activity compared with Trolox ([1]; 0.003 mg/mL, 60 min) | DPPH radical scavenging kinetics [2] | viability at 10 µM [3] [%] | viability at 50 µM [3] [%] | melting point [°C] | viability at 10 µM [4] [%] | viability at 50 µM [4] [%] | viability at 10 µM [5] [%] | viability at 50 µM [5] [%] | ABTS radical scavenging activity ([1]; 0.003 mg/mL, 60 min) | ABTS radical scavenging kinetics [1] | DPPH radical scavenging capacity compared with ascorbic acid ([2]; at lower concentrations)
N#Cc1ccc(NC(=[Se])Nc2ccc3oc(=O)ccc3c2)cc1 [Compound 3e] | significant lower radical scavenging activity than Trolox | reaching the maximum activity at time-point 0′ | 66.6 | 32.2 | 140 | 59.7 | 31.1 | 60.8 | 17.8 | – | – | –
COc1ccc(NC(=[Se])Nc2ccc3oc(=O)ccc3c2)cc1 [Compound 3c] | – | reaching the maximum activity at time-point 0′ | 58.2 | 34.3 | 159 | 73.9 | 17.4 | 61.6 | 9.7 | – | – | –
N#Cc1ccc(NC(=[Se])NCc2nccs2)cc1 [Compound 2e] | – | reaching the maximum activity at time-point 0′ | 57.9 | 59.2 | 152 | 62.3 | 43.6 | 66.6 | 40.1 | above 90% | – | –
Cc1ccc(NC(=[Se])NCc2ccco2)cc1 [Compound 1b] | – | – | 66.2 | 43.1 | – | 64.8 | 12.4 | 52.1 | 21.6 | – | – | –
CCCCCCNC(=[Se])Nc1ccc(C#N)cc1 [Compound 5e, N-hexyl-N´-(4-cyanophenyl)selenourea] | – | reaching the maximum activity at time-point 0′ | 59.1 | 40.4 | 125 | 68.5 | 14.7 | 80.2 | 23.3 | – | – | –
CCCCCCNC(=[Se])Nc1ccc(OC)cc1 [Compound 5c] | – | – | 62.6 | 31.1 | 97 | 60.1 | 8.1 | 70.4 | 10.7 | – | – | –
CCCCNC(=[Se])Nc1ccc(C#N)cc1 [Compound 4e] | – | reaching the maximum activity at time-point 0′ | 60.7 | 46.3 | 145 | 70.7 | 39 | 74.6 | 29.7 | – | – | –
Cc1c(C)c2c(c(C)c1O)CCC(C)(C(=O)O)O2 (centres unmarked) [Trolox, reference compound] | – | – | – | – | – | – | – | – | – | – | reached the maximal ABTS radical scavenging activity quickly | –
Cc1ccc(NC(=[Se])Nc2ccc3oc(=O)ccc3c2)cc1 [Compound 3b] | – | reaching the maximum activity at time-point 0′ | 57.1 | 46.1 | 145 | 73.8 | 29.2 | 62.9 | 27.3 | – | – | –
O=C1O[C@H]([C@@H](O)CO)C(O)=C1O [ascorbic acid, reference compound] | – | – | – | – | – | – | – | – | – | – | reached the maximal ABTS radical scavenging activity quickly | –
[Se]=C(NCc1ccco1)Nc1ccccc1 [Compound 1a] | – | – | 70.4 | 44.6 | 109 | 75.7 | 32.3 | 63.5 | 20.5 | – | – | –
CCCCNC(=[Se])Nc1ccc(Cl)cc1 [Compound 4d] | – | – | 64.4 | 46 | 116 | 50.3 | 34.1 | 58.1 | 38 | – | – | –
O=c1ccc2cc(NC(=[Se])Nc3ccc(Cl)cc3)ccc2o1 [Compound 3d] | – | reaching the maximum activity at time-point 0′ | 59.1 | 35.7 | 156 | 69.7 | 28.6 | 70.1 | 14 | – | – | –
Cc1ccc(NC(=[Se])NCc2nccs2)cc1 [Compound 2b] | – | – | 88.3 | 49.6 | 154 | 65.5 | 16.8 | 53.1 | 18.1 | – | – | greater radical scavenging capacity than ascorbic acid
CCCCCCNC(=[Se])Nc1ccc(Cl)cc1 [Compound 5d] | significant lower radical scavenging activity than Trolox | – | 69.1 | 42.5 | 110 | 81.3 | 17.3 | 81.4 | 57.2 | – | – | –
COc1ccc(NC(=[Se])NCc2ccco2)cc1 [Compound 1c] | – | – | 70.5 | 39.1 | 128 | 64 | 21.5 | 55.7 | 28.8 | – | – | –
